Measurements taken from the supplement of paper PMC10307832.

Experiments:
Experiment in all cases: relative viability (nuclei count vs DMSO), 5 days (fraction); higher = more cells survive
[1] = test system: NCI-H727
How it was run: (§1)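 Cells from lung cancer lines were seeded into 1536-well plates and, one day later, dosed by pin tool. Treatments were either a single drug or a fixed dose of an anchor drug with five library-drug doses (not always all listed) in √10 steps. After 5 days, nuclei were stained in a one-step fixation (final 0.05% Triton X-100, 1% formaldehyde, 1 ug/ml Hoechst) and counted on 4× images, and relative viability is the treated-to-vehicle nuclei ratio, as the median of duplicate plates.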

[2] = test system: NCI-H2023
How it was run: as §1

[3] = test system: NCI-H1395
How it was run: as §1

[4] = test system: NCI-H1734
How it was run: as §1

[5] = test system: SW 1573
How it was run: as §1

[6] = test system: NCI-H1915
How it was run: as §1

[7] = test system: LC-2-ad
How it was run: as §1

[8] = test system: NCI-H2170
How it was run: as §1

[9] = test system: NCI-H358
How it was run: as §1

[10] = test system: EMC-BAC-2
How it was run: as §1

[11] = test system: HOP-62
How it was run: as §1

CCNC(=O)c1noc(-c2cc(C(C)C)c(O)cc2O)c1-c1ccc(CN2CCOCC2)cc1 [Luminespib] + CS(=O)(=O)CCNCc1ccc(-c2ccc3ncnc(Nc4ccc(OCc5cccc(F)c5)c(Cl)c4)c3c2)o1 [Lapatinib] (partner 2 µM)
relative viability ([1]; first compound 0.02 µM): 0.435
relative viability ([1]; first compound 0.06325 µM): 0.227
relative viability ([1]; first compound 0.2 µM): 0.192
relative viability ([2]; first compound 0.002 µM): 0.866
relative viability ([2]; first compound 0.006325 µM): 0.787
relative viability ([2]; first compound 0.02 µM): 0.124
relative viability ([2]; first compound 0.06325 µM): 0.0702
relative viability ([2]; first compound 0.2 µM): 0.0724
relative viability ([3]; first compound 0.002 µM): 1.04
relative viability ([3]; first compound 0.006325 µM): 0.996
relative viability ([3]; first compound 0.02 µM): 0.645
relative viability ([3]; first compound 0.06325 µM): 0.336
relative viability ([3]; first compound 0.2 µM): 0.347
relative viability ([4]; first compound 0.002 µM): 1.08
relative viability ([4]; first compound 0.006325 µM): 1
relative viability ([4]; first compound 0.02 µM): 0.675
relative viability ([4]; first compound 0.06325 µM): 0.123
relative viability ([4]; first compound 0.2 µM): 0.132
relative viability ([5]; first compound 0.002 µM): 1.2
relative viability ([5]; first compound 0.006325 µM): 1.14
relative viability ([5]; first compound 0.02 µM): 0.711
relative viability ([5]; first compound 0.06325 µM): 0.439
relative viability ([5]; first compound 0.2 µM): 0.127
relative viability ([6]; first compound 0.002 µM): 0.943
relative viability ([6]; first compound 0.006325 µM): 0.957
relative viability ([6]; first compound 0.02 µM): 0.932
relative viability ([6]; first compound 0.06325 µM): 0.99
relative viability ([6]; first compound 0.2 µM): 0.284
relative viability ([7]; first compound 0.002 µM): 0.928
relative viability ([7]; first compound 0.006325 µM): 0.954
relative viability ([7]; first compound 0.02 µM): 0.659
relative viability ([7]; first compound 0.06325 µM): 0.498
relative viability ([7]; first compound 0.2 µM): 0.0905
relative viability ([8]; first compound 0.002 µM): 0.254
relative viability ([8]; first compound 0.006325 µM): 0.28
relative viability ([8]; first compound 0.02 µM): 0.248
relative viability ([8]; first compound 0.06325 µM): 0.291
relative viability ([8]; first compound 0.2 µM): 0.203
relative viability ([9]; first compound 0.002 µM): 0.503
relative viability ([9]; first compound 0.006325 µM): 0.446
relative viability ([9]; first compound 0.02 µM): 0.354
relative viability ([9]; first compound 0.06325 µM): 0.132
relative viability ([9]; first compound 0.2 µM): 0.14
relative viability ([10]; first compound 0.002 µM): 0.942
relative viability ([10]; first compound 0.006325 µM): 0.84
relative viability ([10]; first compound 0.02 µM): 0.597
relative viability ([10]; first compound 0.06325 µM): 0.853
relative viability ([10]; first compound 0.2 µM): 0.781
relative viability ([11]; first compound 0.002 µM): 1.13
relative viability ([11]; first compound 0.006325 µM): 1.08
relative viability ([11]; first compound 0.02 µM): 0.695
relative viability ([11]; first compound 0.06325 µM): 0.762
relative viability ([11]; first compound 0.2 µM): 0.0994
